# According to PMC7144376, “Antiviral Effects of Novel 2-Benzoxyl-Phenylpyridine Derivatives” (Molecules, 2020):
# Columns and labels:
# Assay type in all cases: cell-based, Coxsackievirus B3
# CVB3 [1] = experiment: Inhibition of CVB3-induced cytopathic effects in Hep-2 cells (MTT); details: for EC50 / inhibition at 160 µM: Enterovirus B; for EC50: 100 TCID50 CVB3, 48 h, MTT, read-out: EC50 (50% protection from virus-induced cytopathogenicity), CVB3; for protection against CVB3-induced CPEs (microscopy): 120 μM W-9, 160 μM W-13, 160 μM W-15; for inhibition at 160 µM: CVB3, at 160 μM, read-out: inhibition of CVB3 infections
# Experimental: Figure 1 Antiviral activities of novel 2-benzoxyl-phenylpyridine derivatives against CVB3 and ADV7. […] Hep-2 or HeLa cells were infected with 100 TCID50 of CVB3 or ADV7 for 1.5 h at 37 °C. Then, the inocula were aspirated and the cells were incubated with various concentrations of test compounds for 48 h. Cell viability was determined using the MTT assay. (b) Images showing the morphology of Hep-2 and HeLa cells treated with 120 μM W-9, 160 μM W-13, or 160 μM W-15 (magnification, 20×).
# The antiviral activities of compounds against CVB3 and ADV7 were determined by measuring their inhibition of virus-induced CPEs in acutely infected Hep-2 and HeLa cells, respectively. Confluent cell monolayers in 96-well plates were infected with 100 TCID50 of CVB3 or ADV7 for 1.5 h at 37 °C, inocula were aspirated, and the cells then were incubated with various concentrations of compounds at 37 °C, 5% CO2, for 48 h. CPEs were observed by microscopy and the viability of cells was determined using MTT assays. The concentrations of test compounds required to achieve 50% protection from virus-induced cytopathogenicity (EC50 values) were determined. Adverse effects of tested compounds on host cells were also assessed using the MTT method after exposing uninfected cells to various concentrations of test compounds for 48 h at 37 °C. The CC50 values of compounds were calculated using SPSS software and selectivity indices were the ratio of CC50:EC50. Each experiment was performed in triplicate and at least three times, independently.
# CVB3 [2] = experiment: Viral release analysis; details: Hep-2 cells, 12 h; intra- and extracellular titers; 120 μM W-9, 160 μM W-13, W-15, ribavirin
# Experimental: (§1) Figure 3 Analysis of the modes of action of W9, W13, and W15 against CVB3. (a) Analysis of effective stage. The antiviral effects of test compounds against CVB3 were detected by measuring cell viability after 48 h of infection when cells were treated with W9, W13, or W15 before, simultaneously, or after inoculation with CVB3 (100 TCID50). (b) Analysis of the effects on CVB3 adsorption. Mock-, 120 μM W-9-, 160 μM W-13-, 160 μM W-15-, or 160 μM ribavirin-treated CVB3 (10^6 TCID50) was inoculated onto Hep-2 cells and adsorbed for 2 h. Infected cells were then harvested and subjected to virus titration, using the TCID50 method. (c) The effects of test compounds on CVB3 release from Hep-2 cells. Hep-2 cells infected with 100 TCID50 of CVB3 were incubated with test compounds for 12 h, then cells and culture supernatants (intra- and extracellular) analyzed for virus yield, separately or together. Mock, no infection; VC, virus control. Values represent the means ± SDs of three independent experiments. * p < 0.05; ** p < 0.01, compared with the virus control group.
# The viral life cycle is completed by release of progeny for further infection of neighboring cells. Therefore, we tested whether viral release from cells is affected by W9, W13, and W15. Hep-2 cells infected with 100 TCID50 of CVB3 were incubated with test compounds for 12 h, then both cells and supernatants (intra- and extracellular), or one of which was harvested separately, and virus yields were determined. Ribavirin was used as the positive control.
# Hep-2 cells were treated with or without 120 μM W-9, 160 μM W-13, 160 μM W-15, or 160 μM ribavirin after infection with 100 TCID50 of CVB3. Supernatants and cells were harvested together or separately for the determination of progeny virus yields at 12 h pi by the Reed–Muench method.
# CVB3 [3] = experiment: Direct inactivation of virions (viricidal test); details: 10^4 TCID50 CVB3, 2 h at 37 °C; 120 μM W-9, 160 μM W-13, W-15, ribavirin
# Experimental: To determine whether these 2-benzoxyl-phenylpyridine derivatives inactivated virions directly, 10^4 TCID50 of CVB3 suspension was incubated with 120 μM W-9, 160 μM W-13, 160 μM W-15, or 160 μM ribavirin for 2 h at 37 °C. Subsequently, viral titers were measured by inoculating 100-fold dilutions of the mixtures, beyond the effective concentrations of the compounds, into the host cells. TCID50 values were calculated by the Reed–Muench method on day 2 post-inoculation.
# CVB3 [4] = experiment: Viral adsorption/entry analysis; details: Hep-2 cells, CVB3 10^6 TCID50, 2 h adsorption; 120 μM W-9, 160 μM W-13, W-15, ribavirin
# Experimental: as §1
# To this end, Hep-2 cells were mock-treated or inoculated with CVB3 (10^6 TCID50) treated with 120 μM W-9, 160 μM W-13, 160 μM W-15, or 160 μM ribavirin, and adsorbed for 2 h. Infected cells were then harvested and subjected to virus titration, using the TCID50 method.
# Cells were infected with CVB3 (10^6 TCID50) containing 120 μM W-9, 160 μM W-13, 160 μM W-15, or 160 μM ribavirin, after 2 h adsorption at 37 °C, inocula were discarded, and the cells were washed three times with phosphate buffered saline (PBS), harvested, following three freeze-thaw cycles, and subjected to virus titration. Cells infected with CVB3 in the absence of test compounds were used as untreated virus-infected controls.
Structure (SMILES),"SI (CC50/EC50), CVB3 (CVB3 [1])",maximum inhibition of CVB3 (CVB3 [1]) [%],EC50 (CVB3 [1]) [µM],effect on CVB3 release from cells (CVB3 [2]),virus titer after incubating CVB3 suspension with compound (viricidal activity) (CVB3 [3]),virus titer during virus attachment (adsorption/entry) (CVB3 [4]),inhibitory activity against CVB3 infection (in words) (CVB3 [1]),protection against CVB3-induced CPEs (microscopy) (CVB3 [1]),inhibition at 160 µM (CVB3 [1]) [%]
"NC(=O)c1ncn([C@@H]2O[C@H](CO)[C@@H](O)[C@H]2O)n1 [Ribavirin, reference compound]",8.3,63.0,101,do not act on viral release from cells,No significant difference,no significant decrease in virus titer,–,–,–
O=C(Oc1cc(Cl)ccc1-c1ccccn1)c1ccccc1 [W9],6.0,–,24.6 ± 8.7,do not act on viral release from cells,No significant difference,no significant decrease in virus titer,significant inhibitory activities,almost complete protection,73
Cc1ccc(OC(=O)C(C)(C)C)c(-c2ccccn2)c1 [W13],10.2,–,41.6 ± 11.5,do not act on viral release from cells,No significant difference,no significant decrease in virus titer,significant inhibitory activities,almost complete protection,92.8
CC(=O)Oc1ccc(-c2ccccn2)c(OC(=O)c2ccccc2)c1 [W15],6.5,–,69.7 ± 15,do not act on viral release from cells,No significant difference,no significant decrease in virus titer,significant inhibitory activities,almost complete protection,90
